Assay results published in ChEMBL document CHEMBL5236599, “Design, synthesis and biological evaluation of cajanonic acid A analogues as potent PPAR γ antagonists” (Bioorg Med Chem Lett, 2023).

Legend:
[1] = Induction of insulin-sensitizing activity in insulin-resistant human HepG2 cells assessed as glucose consumption at 0.1 uM (reference value: 5.83 +/-0.101 mM); type: functional
[2] = Induction of insulin-sensitizing activity in insulin-resistant human HepG2 cells assessed as increase in glucose consumption at 0.1 uM relative to control; type: functional
[3] = Induction of insulin-sensitizing activity in insulin-resistant mouse 3T3-L1 cells assessed as increase in glucose consumption at 0.1 uM relative to control; type: functional
[4] = Cytotoxicity against mouse 3T3-L1 cells assessed as cell viability at 0.1 uM; type: toxicity, cell-based; conditions: read-out: Activity
[5] = Induction of insulin-sensitizing activity in insulin-resistant mouse 3T3-L1 cells assessed as glucose consumption at 0.1 uM (reference value: 3.354 +/- 0.342 mM); type: functional
[6] = biological target: T1, Peroxisome proliferator-activated receptor gamma (Homo sapiens) (UniProt P37231); assay: Antagonist activity at PPAR-gamma (unknown origin) transfected in human HEK293 cells assessed as decrease in rosiglitazone-induced receptor transactivation at 10 uM by dual-luciferase reporter gene assay relative to control; type: cell-based
T1 sequence (whole entry): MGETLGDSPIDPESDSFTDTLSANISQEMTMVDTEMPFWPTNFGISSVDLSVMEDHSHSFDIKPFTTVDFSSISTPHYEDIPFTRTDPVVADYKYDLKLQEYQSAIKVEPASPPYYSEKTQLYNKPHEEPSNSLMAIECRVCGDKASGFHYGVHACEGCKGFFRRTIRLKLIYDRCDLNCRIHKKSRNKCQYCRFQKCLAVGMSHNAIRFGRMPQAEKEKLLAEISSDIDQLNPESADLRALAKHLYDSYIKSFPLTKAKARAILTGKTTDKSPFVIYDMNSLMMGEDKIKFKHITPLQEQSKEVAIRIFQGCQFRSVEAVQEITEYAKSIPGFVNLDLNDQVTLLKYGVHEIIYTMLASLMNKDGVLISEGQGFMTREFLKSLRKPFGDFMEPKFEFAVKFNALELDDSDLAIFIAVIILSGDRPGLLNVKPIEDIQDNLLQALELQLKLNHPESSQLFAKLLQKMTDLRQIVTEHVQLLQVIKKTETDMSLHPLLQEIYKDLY

[7] = biological target: T1, Peroxisome proliferator-activated receptor gamma (Homo sapiens); assay: Antagonist activity at PPAR-gamma (unknown origin) transfected in human HEK293 cells assessed as decrease in rosiglitazone-induced receptor transactivation at 1 uM by dual-luciferase reporter gene assay relative to control; type: cell-based
[8] = Cytotoxicity against human HepG2 cells assessed as cell viability at 0.1 uM; type: toxicity, cell-based; conditions: read-out: Activity
Mus musculus = species: Mus musculus; assay: Hypoglycemic activity in db/db mouse assessed as AUC of blood glucose level by oral glucose tolerance test (reference value: 114.8 mmol.min/L); type: functional

Compound	inhibition ([6]; filed as antagonist) [%]	inhibition [7] [%]	inhibition [6] [%]	Activity [1] [mM]	Activity [2] [%]	Activity [3] [%]	viability at 0.1 µM [4] [%]	Activity [5] [mM]	viability at 0.1 µM [8] [%]	AUC (Mus musculus) [mmol·min/L]
COc1cc(O)c(C(=O)O)c(CC(=O)c2ccccc2)c1CC=C(C)C	–	12.9	39	6.729	20.66	–	–	–	–	–
COc1cc(O)c(C(=O)O)c(CC(=O)c2cccc(C3CC3)c2)c1CC=C(C)C	81.2	34.6	–	6.002	2.94	36	–	5.099	–	–
COc1cc(O)c(C(=O)O)c(CC(=O)c2cccc(-c3ccc(F)cc3)c2)c1CC=C(C)C	66	16	–	7.564	29.73	77.02	–	6.637	–	–
COc1cc(CC(=O)c2cccc(-c3ccc(C)cc3)c2)c(C(=O)O)c(O)c1CC=C(C)C	–	–	–	7.886	35.25	105.7	–	7.712	–	–
COc1cc(O)c(C(=O)O)c(CC(=O)c2cccc(-c3ccc(Cl)cc3)c2)c1CC=C(C)C	71	19.3	–	8.091	38.76	93.55	–	7.257	–	–
COc1cc(O)c(C(=O)O)c(CC(=O)c2cccc(-c3ccccc3C(F)(F)F)c2)c1CC=C(C)C	80.1	–	–	8.251	41.5	51.71	–	5.688	–	–
COc1cc(CC(=O)c2cccc(-c3ccc(F)cc3)c2)c(C(=O)O)c(O)c1CC=C(C)C	–	–	–	5.195	-10.9	-0.2	< 50	3.741	–	–
O=C(Nc1ccccc1)c1cc([N+](=O)[O-])ccc1Cl	99.1	10.9	–	–	–	–	–	–	–	–
COc1cc(O)c(C(=O)O)c(CC(=O)c2cccc(-c3ccnc(Cl)c3)c2)c1CC=C(C)C	92.3	19.9	–	6.318	8.36	48.82	–	5.579	< 80	–
CCc1ccc(-c2cccc(C(=O)Cc3c(CC=C(C)C)c(OC)cc(O)c3C(=O)O)c2)cc1	60.2	-8.3	–	8.202	40.66	77.5	–	6.655	–	–
CN(CCOc1ccc(CC2SC(=O)NC2=O)cc1)c1ccccn1 (stereo not given) [ROSIGLITAZONE]	–	–	–	7.15	22.74	44.58	–	5.421	–	–
COc1cc(O)c(C(=O)O)c(CC(=O)c2cccc(-c3cccc(C(F)(F)F)c3)c2)c1CC=C(C)C	–	-2.4	39.6	8.306	42.45	71.43	–	6.427	–	–
COc1ccc(-c2cccc(C(=O)Cc3c(CC=C(C)C)c(OC)cc(O)c3C(=O)O)c2)c(F)c1	84.7	-0.4	–	6.928	18.83	95.64	–	7.335	–	–
COc1cc(O)c(C(=O)O)c(CC(=O)c2cccc(-c3ccc(C)cc3)c2)c1CC=C(C)C	64.5	23.9	–	7.492	28.49	99.73	–	7.488	–	–
COc1ccc(-c2cccc(C(=O)Cc3c(CC=C(C)C)c(OC)cc(O)c3C(=O)O)c2)cc1	79.5	36.9	–	7.252	24.38	105.12	–	7.69	–	–
CCc1ccc(CCOc2ccc(CC3SC(=O)NC3=O)cc2)nc1 (stereo not given) [PIOGLITAZONE]	–	–	–	–	–	–	–	–	–	94.8

More lines, main results first:

inhibition ([6]; filed as antagonist) [%]	inhibition [7] [%]	inhibition [6] [%]	Compound	Activity [1] [mM]	Activity [2] [%]	Activity [3] [%]	viability at 0.1 µM [4] [%]	Activity [5] [mM]	viability at 0.1 µM [8] [%]	AUC (Mus musculus) [mmol·min/L]
40.5	–	–	COc1cc(CC(=O)c2cccc(-c3ccccc3C(F)(F)F)c2)c(C(=O)O)c(O)c1CC=C(C)C	8.368	43.51	15.58	< 50	4.333	–	–
–	–	31.7	COc1cc(CC(=O)c2cccc(-c3cccnc3)c2)c(C(=O)O)c(O)c1CC=C(C)C	6.93	18.84	21.46	–	4.554	< 80	–
–	–	20.8	COc1ccc(-c2cccc(C(=O)Cc3cc(OC)c(CC=C(C)C)c(O)c3C(=O)O)c2)cc1	7.438	27.56	100.93	–	7.533	–	–
77.7	17.7	–	COc1cc(CC(=O)c2cccc(C3CC3)c2)c(C(=O)O)c(O)c1CC=C(C)C	6.696	14.83	51.66	–	5.686	–	–
–	–	16.4	COc1ccc(-c2cccc(C(=O)Cc3cc(OC)c(CC=C(C)C)c(O)c3C(=O)O)c2)c(F)c1	7.992	37.05	75.81	–	6.591	–	–
82.5	-3.8	–	COc1cc(O)c(C(=O)O)c(CC(=O)c2cccc(-c3cccnc3)c2)c1CC=C(C)C	5.917	1.49	-17.14	–	3.107	< 80	–
–	4.6	10.3	COc1cc(CC(=O)c2cccc(-c3cncnc3)c2)c(C(=O)O)c(O)c1CC=C(C)C	6.43	10.28	9.11	–	4.09	< 80	–
–	12.7	11.1	COc1cc(CC(=O)c2cccc(-c3ccnc(Cl)c3)c2)c(C(=O)O)c(O)c1CC=C(C)C	7.34	25.88	46.74	–	5.501	–	–
–	–	8.1	CCc1ccc(-c2cccc(C(=O)Cc3cc(OC)c(CC=C(C)C)c(O)c3C(=O)O)c2)cc1	7.93	36.01	87.84	–	7.042	–	–
43.7	24.3	–	COc1cc(O)c(C(=O)O)c(CC(=O)c2cccc(-c3ccsc3)c2)c1CC=C(C)C	6.047	3.71	70.82	–	6.404	< 80	–
55	11.5	–	COc1cc(O)c(C(=O)O)c(CC(=O)c2cccc(-c3cncnc3)c2)c1CC=C(C)C	6.171	5.76	-11.08	–	3.405	< 80	–
50.9	-6.1	–	COc1cc(CC(=O)c2cccc(-c3cccc(C(F)(F)F)c3)c2)c(C(=O)O)c(O)c1CC=C(C)C	8.649	48.32	37.4	–	5.151	–	–
57.5	24.1	–	COc1cc(CC(=O)c2cccc(-c3ccccc3Cl)c2)c(C(=O)O)c(O)c1CC=C(C)C	8.371	43.55	59.21	–	5.969	–	–
–	–	26.6	COc1cc(CC(=O)c2cccc(-c3ccc(Cl)cc3)c2)c(C(=O)O)c(O)c1CC=C(C)C	8.138	39.56	91.12	–	7.165	–	–
47.7	7.7	–	COc1cc(CC(=O)c2cccc(-c3ccsc3)c2)c(C(=O)O)c(O)c1CC=C(C)C	8.126	39.36	117.26	–	8.145	–	–
